Data set [1] is described as follows: CPP content determination (HPLC). The format is physicochemical. Conditions: raw material, initial.
Method: Preparation of sample stock solution (1 mg/ml anhydrous Cyclophosphamide): an appropriate amount of water is charged into sample bottle with shaking until complete dissolution of the sample, which is transferred to 500 ml volumetric flask. The sample bottle is washed with pure water to ensure complete transfer of all samples into the volumetric flask. The volumetric flask is metered into calibration and shaken for homogeneity.
Preparation of sample solution (0.5 mg/ml anhydrous Cyclophosphamide): 25 ml of sample stock solution and 5.0 ml of internal control solution (precisely weighed 185 mg of ethyl p-hydroxybenzoate control is dissolved in 1000 ml volumetric flask, to which is added 250 ml of ethanol. After shaking for dissolution, pure water is used to meter to calibration with shaking) are charged in 50 ml volumetric flask, which is metered with pure water to calibration with shaking and then used for HPLC analysis.
Data set [2] in a line: Stability in 40° C./75% RH stability test chamber (CPP content). The format is physicochemical. Conditions: raw material.
Method: The CPP freeze-dried composition hydrated for 16 h was placed in 40° C./75% RH stability test chamber, was sampled after 1 month and 3 months, and determined for CPP contents, which were compared with CPP monohydrate obtained by prior art hydrating process.
The CPP freeze-dried composition hydrated for 16 h was placed in 40° C./75% RH stability test chamber, sampled after 1 month and 3 months for determining CPP contents.
For data set [3] the following is noted: raw material.
Method: The moisture content, CPP content and redissolving time were determined for CPP freeze-dried composition hydrated with saturated sodium chloride solution in the freeze-drying box, respectively. In addition, the CPP freeze-dried compositions hydrated for 16 h and 24 h were placed in 45° C. oven and sampled for determining CPP contents after 1 week and 2 weeks, respectively.
Moisture content, CPP content and redissolving time were determined for CPP freeze-dried composition hydrated with saturated sodium chloride solution in the dryer, respectively. In addition, the CPP freeze-dried composition hydrated for 16 h was placed in 45° C. oven, sampled after 1 week and 2 weeks, respectively and determined for CPP contents. The CPP freeze-dried composition hydrated for 16 h was placed in 40° C./75% RH stability test chamber, was sampled after 1 month and 3 months, and determined for CPP contents, which were compared with CPP monohydrate obtained by prior art hydrating process.
The moisture content, CPP content and redissolving time were determined for CPP freeze-dried composition hydrated with saturated potassium sulfate solution in the dryer, respectively. In addition, the CPP freeze-dried composition hydrated for 16 h was placed in 45° C. oven and was sampled for determining CPP contents after 1 week and 2 weeks, respectively. […]
Data set [4] can be described thus: Bulk density (USP <616> Method I). The format is physicochemical. As to conditions: active ingredient; strength NA, hydration solution NA. The protocol:
BD is calculated by the following formula: […]
W is the theoretical weight, g;
V0 is the macroscopic volume, mL.
V0 is calculated by the following formula: […]
D is the theoretical inside diameter, cm;

Data set [5] can be described thus: Tapped density (USP <616> Method I). The format is physicochemical. As to conditions: active ingredient; strength NA, hydration solution NA.
Data set [6] in a line: Skeletal density (gas pycnometer). The format is physicochemical. Conditions: active ingredient; strength NA, hydration solution NA. The protocol:
Skeletal Density, also known as true density, is determined at room temperature by Gas Pycnometer (Micromeritics Accupyc II 1340). Skeletal density is calculated by the following formula: […]
V1 is the true volume of the test sample, measured by Gas Pycnometer, mL.

The nature of data set [7]: Porosity (calculated from bulk and skeletal density). The format is physicochemical. As to conditions: active ingredient; strength NA, hydration solution NA. The protocol:
The porosity is calculated with the macroscopic volume (V0) & true volume (V1) or the bulk density (ρ0) & skeletal density (ρ1) by the following formula: […]

A short description of data set [8]: Reconstitution time (0.9% sodium chloride injection, cyclotron 250 rpm). The format is physicochemical. Conditions: active ingredient. The protocol:
Then the glass vial is placed on cyclotron (HY-5, Shanghai Suhao intelligent system Co. Ltd) which makes the glass vial oscillate at 250 rpm at room temperature to dissolve the active ingredient completely. The reconstitution time is recorded in Table 20.

The format of data set [9] is physicochemical. Conditions: air dispersion/dry model; hydration pressure 50 kPa. The protocol:
The hydrated CPP freeze-dried composition is stirred by weighting scoop gently until flowable powder comes into being. Then 1-2 g test sample is added on injection plate. Test method and parameters are as follows:
It will be understood by a person of ordinary skill in the art that a common approach to defining the distribution width is to cite three values on the x-axis, the D10, D50, and D90. As used herein, the term “D50” refers to the median particle diameter, wherein half of the particle population has a diameter below such value. As used herein, the term “D90,” refers to the particle diameter wherein 90% of the particle population has a diameter below such value. As used herein, the term “D10,” refers to the particle diameter wherein 10% of the particle population has a diameter below such value.

The conditions of data set [10]: general description; cited from earlier work.

As for `O=P1(N(CCCl)CCCl)NCCCO1` (stereo not drawn) [CPP monohydrate raw material, P-[N,N-bis(β-chloroethyl)]-1-oxa-3-aza-2-phosphocyclohexane-P-oxide], the CPP content % in data set [1] is given as 99.6%. In data set [2], the “Stability-CPP content % 40° C./75% RH-1 month” value turned out to be 98.9% and the “Stability-CPP content % 40° C./75% RH-3 month” value is recorded as 86.1%. For the same molecule, in data set [3], the “Stability-CPP content % 45° C.-1 week” value is recorded as 106.1% and the “Stability-CPP content % 45° C.-2 week” value was 101.8%.

Regarding `O=P1(N(CCCl)CCCl)NCCCO1` (stereo not drawn) [P-[N,N-bis(β-chloroethyl)]-1-oxa-3-aza-2-phosphocyclohexane-P-oxide], the “Bulk Density” value in [4] is listed as 0.6246 g/mL. The “Tapped Density” value in data set [5] was determined as 0.9369 g/mL. The “Skeletal Density” value in [6] is recorded as 1.4286 g/mL. For the same molecule, the Porosity in data set [7] is given as 56.28%. This molecule gave a Reconstitution time in data set [8] (strength 0.5 g) of 8.7 min. Besides, the Reconstitution time in [8] (strength 1 g) is on record as 11.2 min. Moreover, in data set [8] (strength 2 g), the Reconstitution time is 16.4 min. In addition, in data set [9], the D10 stood at 5.6 μm, the D50 came out at 34.8 μm and the D90 worked out at 262.0 μm. The Solubility entry in [10] is listed as “soluble in water, normal saline or ethanol”.

The values are drawn from patent US20200155579A1, “Process for Hydrating Cyclophosphamide Freeze-Dried Composition and Product Thereof” (priority 2018, published 2020).
